Measurements: PMC10484737 (Nucleic Acids Research, 2023)
Entries after “also recorded” stand apart in the source; their conditions may differ.

Assays:
[1] = target: T1, TsaN^749−1008 (TcdA domain of TsaN) (Pandoravirus salinus, UniProt A0A291ATS8); test: ITC, ligand binding to the TcdA domain; parameters: species or system P. salinus
T1 sequence (A0A291ATS8 749-1008): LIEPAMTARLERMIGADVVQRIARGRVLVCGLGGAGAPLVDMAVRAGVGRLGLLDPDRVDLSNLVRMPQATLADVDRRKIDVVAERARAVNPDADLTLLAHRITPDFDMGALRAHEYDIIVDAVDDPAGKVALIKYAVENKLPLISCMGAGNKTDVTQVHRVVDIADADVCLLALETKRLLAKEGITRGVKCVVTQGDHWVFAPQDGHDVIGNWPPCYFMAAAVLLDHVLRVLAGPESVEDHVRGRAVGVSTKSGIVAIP

[2] = target: T2, TsaN^1−392 (TsaD domain of TsaN) (Pandoravirus salinus, UniProt A0A291ATS8); test: ITC, nucleotide binding to the TsaD domain; parameters: species or system P. salinus; conditions: for ΔG / ΔH: 30 μM TsaN^1−392 titrated with 360 μM ligand
T2 sequence (A0A291ATS8 1-392): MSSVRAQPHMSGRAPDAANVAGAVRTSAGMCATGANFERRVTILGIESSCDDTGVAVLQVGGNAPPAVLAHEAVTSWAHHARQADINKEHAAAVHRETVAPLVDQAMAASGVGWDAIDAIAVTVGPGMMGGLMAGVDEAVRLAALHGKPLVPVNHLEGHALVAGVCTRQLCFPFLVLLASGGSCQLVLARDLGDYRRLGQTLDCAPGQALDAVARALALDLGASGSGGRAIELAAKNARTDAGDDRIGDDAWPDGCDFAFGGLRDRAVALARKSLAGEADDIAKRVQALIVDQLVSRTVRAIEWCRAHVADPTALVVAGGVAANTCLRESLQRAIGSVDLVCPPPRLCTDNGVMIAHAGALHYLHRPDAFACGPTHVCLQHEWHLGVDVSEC

TsaN^749−1008 = test: Enzymatic assay of ct^6A, LC–MS; format: biochemical, P. salinus; conditions: for ct^6A formation from synthetic t^6A in the presence of the nucleotide (ct^6A/t^6A): TsaN^749−1008 and synthetic t^6A plus ATP, AMPCPP, AMP or AMP + PPi
TsaN = target: T3, TsaN (Pandoravirus salinus, UniProt A0A291ATS8); test: Effect of divalent metal ions on biosynthesis of t^6ADP and t^6ATP; format: biochemical, P. salinus; conditions: pre-bound metals removed by dialysis with EDTA
T3 sequence (A0A291ATS8 1-1008): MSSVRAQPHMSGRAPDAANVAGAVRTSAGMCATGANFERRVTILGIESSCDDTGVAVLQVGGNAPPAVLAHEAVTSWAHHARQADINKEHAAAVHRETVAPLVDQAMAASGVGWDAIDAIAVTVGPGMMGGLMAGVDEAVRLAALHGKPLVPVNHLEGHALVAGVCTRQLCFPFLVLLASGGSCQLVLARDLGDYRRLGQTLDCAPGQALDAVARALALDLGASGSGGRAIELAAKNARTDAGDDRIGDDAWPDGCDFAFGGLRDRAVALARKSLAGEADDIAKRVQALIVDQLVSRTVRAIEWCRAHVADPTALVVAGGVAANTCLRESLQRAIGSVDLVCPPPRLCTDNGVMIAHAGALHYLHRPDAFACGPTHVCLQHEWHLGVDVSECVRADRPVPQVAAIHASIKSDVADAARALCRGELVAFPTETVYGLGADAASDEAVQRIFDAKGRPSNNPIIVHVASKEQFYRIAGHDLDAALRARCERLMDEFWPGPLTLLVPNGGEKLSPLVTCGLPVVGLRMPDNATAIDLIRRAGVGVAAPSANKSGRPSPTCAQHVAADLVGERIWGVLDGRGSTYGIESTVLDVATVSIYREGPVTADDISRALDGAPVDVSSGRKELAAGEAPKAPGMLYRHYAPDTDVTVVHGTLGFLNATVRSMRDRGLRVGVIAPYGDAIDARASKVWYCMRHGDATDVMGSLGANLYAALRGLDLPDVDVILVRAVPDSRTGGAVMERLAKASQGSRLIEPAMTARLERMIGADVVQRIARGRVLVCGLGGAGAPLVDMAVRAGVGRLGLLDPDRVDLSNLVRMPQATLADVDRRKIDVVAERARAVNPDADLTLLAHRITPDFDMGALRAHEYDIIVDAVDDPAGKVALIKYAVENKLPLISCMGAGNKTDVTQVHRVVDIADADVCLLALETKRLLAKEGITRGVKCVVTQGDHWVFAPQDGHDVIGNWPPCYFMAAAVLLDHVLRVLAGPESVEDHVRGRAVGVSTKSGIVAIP

TsaN^(1−392)H155A/H159A = test: ITC, ATP binding to the TsaD domain variant; parameters: species or system P. salinus; conditions: 30 μM TsaN^(1−392)H155A/H159A titrated with 360 μM ligand
TsaN^H155A/H159A = test: NADH-coupled ATPase assay; format: biochemical, P. salinus; conditions: 5 μM TsaN^H155A/H159A
[3] = target: Pandoravirus salinus TsaN (TsaD-TsaC-SUA5-TcdA modular protein), full length (Pandoravirus salinus); test: SEC
[4] = target: Pandoravirus salinus TsaN (TsaD-TsaC-SUA5-TcdA modular protein), full length (Pandoravirus salinus); test: SEC-MALS
[5] = target: TsaN^749-1008 (TcdA domain of P. salinus TsaN) (Pandoravirus salinus); test: SEC-MALS
[6] = substrate: Nc1ncnc2c1ncn2[C@@H]1O[C@H](COP(=O)(O)OP(=O)(O)OP(=O)(O)O)[C@@H](O)[C@H]1O; test: NADH-coupled ATPase assay; format: biochemical, P. salinus; conditions: 25°C, pH 7.5
[7] = 30 μM TsaN^749−1008 titrated with 360 μM ligand
[8] = 30 μM TsaN^749−1008, 360 μM ligand, in the presence of 100 μM synthetic t^6A
[9] = other: 5 μM TsaN^1−392, varying ATP

Molecule: Nc1ncnc2c1ncn2[C@@H]1O[C@H](COP(=O)(O)O)[C@@H](O)[C@H]1O [AMP]
- K D [1, 7]: not able to determine the binding; also recorded: No binding
- N (sites) [1, 7]: No binding
- ΔG [1, 7]: No binding
- ΔH [1, 7]: No binding
- ΔG [2]: -6.49 kcal/mol
- ΔH [2]: -4.74 ± 1.46 kcal/mol
- ct^6A formation from synthetic t^6A in the presence of the nucleotide (ct^6A/t^6A) (TsaN^749−1008): not observed the formation of ct^6A

Molecule: [Cl][Mn][Cl] [MnCl2]
- effect of divalent metal ion on catalytic activity of TsaN (t^6A/A) (TsaN): stimulated the catalytic activity

Molecule: Nc1ncnc2c1ncn2[C@@H]1O[C@H](COP(=O)(O)CP(=O)(O)OP(=O)(O)O)[C@@H](O)[C@H]1O [AMPCPP]
- K D [1, 8]: not observed a binding signal; also recorded: No binding
- N (sites) [1, 8]: No binding
- ΔG [1, 8]: No binding
- ΔH [1, 8]: No binding
- ct^6A formation from synthetic t^6A in the presence of the nucleotide (ct^6A/t^6A) (TsaN^749−1008): not observed the formation of ct^6A

Molecule: Nc1ncnc2c1ncn2[C@@H]1O[C@H](COP(=O)(O)OP(=O)(O)OP(=O)(O)O)[C@@H](O)[C@H]1O [ATP]
- K D (TsaN^(1−392)H155A/H159A): does not bind; also recorded: No binding
- K D [1, 7]: not able to determine the binding; also recorded: No binding
- N (sites) [1, 7]: No binding
- ΔG [1, 7]: No binding
- ΔH [1, 7]: No binding
- ct^6A formation from synthetic t^6A in the presence of the nucleotide (ct^6A/t^6A) (TsaN^749−1008): efficient conversion of t^6A to ct^6A
- ATP hydrolysis (TsaN^749−1008; in the absence of synthetic t^6A, data not shown): not hydrolyzed
- production of ADP in the ATPase assay (TsaN^H155A/H159A): not detected

Molecule: Nc1ncnc2c1ncn2[C@@H]1O[C@H](CO[P@](=O)(O)O[P@](=O)(O)O[P@@](=O)(O)S)[C@@H](O)[C@H]1O [ATPγS]
- Kd [2]: 10.9 ± 8.91 µM
- ΔG [2]: -6.77 kcal/mol
- ΔH [2]: -6.02 ± 2.38 kcal/mol

Molecule: Pandoravirus salinus TsaN (TsaD-TsaC-SUA5-TcdA modular protein), full length (enzyme)
- stoichiometry N [3]: 2
- stoichiometry N [4]: 2

Molecule: Nc1ncnc2c1ncn2[C@@H]1O[C@H](CO)[C@@H](O)[C@H]1O [A, adenosine]
- K D [1, 7]: not able to determine the binding; also recorded: No binding
- N (sites) [1, 7]: No binding
- ΔG [1, 7]: No binding
- ΔH [1, 7]: No binding
- ΔG [2]: No binding
- ΔH [2]: No binding

Molecule: Nc1ncnc2c1ncn2[C@@H]1O[C@H](COP(=O)(O)OP(=O)(O)O)[C@@H](O)[C@H]1O [ADP]
- K D [1, 7]: not able to determine the binding; also recorded: No binding
- N (sites) [1, 7]: No binding
- ΔG [1, 7]: No binding
- ΔH [1, 7]: No binding
- ITC binding to AMP-bound TsaN^1-392 ([2]; 30 μM AMP-bound TsaN^1-392 titrated with 360 μM ADP, data not shown): no binding curves
- ΔG [2]: -7.05 kcal/mol
- ΔH [2]: -2.74 ± 0.62 kcal/mol

Molecule: TsaN^749-1008 (TcdA domain of P. salinus TsaN) (domain or fragment)
- stoichiometry N [5]: 2

B1: TsaN (Pandoravirus salinus) (protein)
chain: T3 sequence (A0A291ATS8 1-1008)
- Km ([6]; other: 5 μM TsaN, varying ATP): 40 µM
- Vmax ([6]; other: 5 μM TsaN, varying ATP): 0.015 µM/s

B2: TsaN^1−392 (Pandoravirus salinus) (protein)
chain: T2 sequence (A0A291ATS8 1-392)
- Km [6, 9]: 40 µM
- Vmax [6, 9]: 0.015 µM/s
